Reference: patent publication US12006313B1, “7-(4-((5-(benzylideneamino)-2-thioxo-1,3,4-thiadiazol-3(2H)-yl)methyl)piperazin-1-yl)-1-cyclopropyl-6-fluoro-4-oxo-1,4-dihydroquinoline-3-carboxylic acid as an anti-inflammatory and anticancer compound” (KING FAISAL UNIVERSITY, priority 2023, dated 2024)

Tests used:
[1] = tested on: human osteosarcoma cells (MG-63); test: Assessment of cytotoxicity by SRB assay, MG-63; type: cell-based; settings: MG-63 cells, 72 h
Experimental: (§1) The human prostate cancer cells (PC3) and human osteosarcoma cells (MG-63) were obtained from Nawah Scientific Inc. (Mokatam, Cairo, Egypt) and cultured in DMEM (Dulbecco's modified eagle's medium), Gibco, USA, supplemented with fetal bovine serum (FBS) at a concentration of 10% and 100 U/mL of penicillin and streptomycin (PS). The Cells were incubated at 37° C. in a humidified environment that contained 5% CO2.
(§2) Cells were seeded in 96-well plates as aliquots of 100 μL cell suspension and incubated in a complete media for 24 h. afterward, cells were treated with N′-(1-naphthoyloxy)-2-(benzo[d]thiazol-2-yl)acetimidamide at diverse concentrations ranging from 0.01 μM to 100 μM for 72 h. Then, cells were fixed at 4° C. for one hour with 150 μL of 10% trichloroacetic acid (TCA). After washing the cells five times with distilled water, 70 μL of sulforhodamine (SRB) solution (0.4% w/v) was added and incubated for 10 min at room temperature in a dark place. […] Then, 150 μL of Tris pH 10.5 (10 mM) was added, and the absorbance was measured at 540 nm using a BMG LABTECH®-FLUOstar Omega microplate reader (Ortenberg, Germany). Half maximal inhibitory concentrations (IC50) values were calculated for each experiment using GraphPad Prism 6 software. […]
(§3) The inhibition was calculated using the following equation: Inhibition %=100-Average Viability

Bovine Serum Albumin = Bovine Serum Albumin (Bos taurus, UniProt P02769); test: Bovine Serum Albumin assay (BSA), inhibition of protein denaturation; type: biochemical; settings: 0.4% w/v BSA, pH 6.4, 72° C. for 10 minutes, turbidity at 660 nm
Bovine Serum Albumin, sequence (P02769 25-607): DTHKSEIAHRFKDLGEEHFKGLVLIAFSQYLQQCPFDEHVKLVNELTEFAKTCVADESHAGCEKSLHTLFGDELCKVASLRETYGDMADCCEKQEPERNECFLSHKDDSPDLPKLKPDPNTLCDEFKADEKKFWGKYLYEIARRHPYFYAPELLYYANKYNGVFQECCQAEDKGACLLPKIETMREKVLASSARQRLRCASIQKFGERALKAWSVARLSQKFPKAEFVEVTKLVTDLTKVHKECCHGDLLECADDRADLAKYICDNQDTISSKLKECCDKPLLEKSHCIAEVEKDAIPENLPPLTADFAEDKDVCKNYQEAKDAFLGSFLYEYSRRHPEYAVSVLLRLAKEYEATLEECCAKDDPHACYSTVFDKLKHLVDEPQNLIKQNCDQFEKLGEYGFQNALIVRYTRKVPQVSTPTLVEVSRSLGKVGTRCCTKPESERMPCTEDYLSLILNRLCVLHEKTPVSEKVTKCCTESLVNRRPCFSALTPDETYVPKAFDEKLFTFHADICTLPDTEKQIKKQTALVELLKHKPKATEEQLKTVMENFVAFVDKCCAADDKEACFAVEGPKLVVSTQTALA
Experimental: In vitro-inflammatory activities of the tested samples were determined using a modified method of the BSA assay reported by Williams et al. BSA solution (0.4%, w/v) was prepared in Tris Buffered Saline. The pH was adjusted to 6.4 with glacial acetic acid. Different dilutions of 20, 40, 60, 80, and 100 μg/mL of the stock solutions were added to test tubes containing 1 mL of 0.4%, w/v BSA buffer solution. Both negative (solvent) and positive (aspirin) controls were assayed in a similar manner. The solutions were then heated in a water bath at 72° C. for 10 minutes and cooled for 20 minutes under laboratory conditions. The turbidity of the solutions (level of protein precipitation) was measured at 660 nm in Spectrophotometer (V-770 UV-Visible/NIR Spectrophotometer).
The percentage inhibition of precipitation (protein denaturation) was determined relative to the negative control using the following equation:
[formula] % Anti-Denaturation Activity=% Inhibition of Protein Denaturation=% Anti-inflammatory Activity

[2] = tested on: human prostate cancer cells (PC3); test: Assessment of cytotoxicity by SRB assay, PC3; type: cell-based; settings: 72 h
Experimental: as §1, §2, §3

O=C(O)c1cn(C2CC2)c2cc(N3CCN(Cn4nc(/N=C/c5ccccc5)sc4=S)CC3)c(F)cc2c1=O [7-(4-((5-(benzylideneamino)-2-thioxo-1,3,4-thiadiazol-3(2H)-yl)methyl)piperazin-1-yl)-1-cyclopropyl-6-fluoro-4-oxo-1,4-dihydroquinoline-3-carboxylic acid]
antiproliferative activity [1]: excellent antiproliferative activities
in vitro anti-inflammatory activity (inhibition of protein denaturation) (Bovine Serum Albumin): considerable anti-inflammatory effect
melting point: 241 to 243 °C
antiproliferative activity [2]: excellent antiproliferative activities
